Consider 29 molecules from ChEMBL document CHEMBL1146974, “Identification and structure-activity relationships of a new series of Melanocortin-4 receptor antagonists” (Bioorg Med Chem Lett, 2006).

Data set [1] deals with T1, Melanocortin receptor 4 (Homo sapiens, UniProt P32245). Put plainly: Antagonist activity against MC4R by cAMP functional assay.
Data set [2] concerns the target T1, Melanocortin receptor 4. Put plainly: Binding affinity to MC4R by membrane filtration assay.
Data set [3] concerns the target Voltage-gated inwardly rectifying potassium channel KCNH2 (Homo sapiens, UniProt Q12809). Put plainly: Binding affinity to hERG. On the technique in general: The hERG channel carries a current that helps repolarise heart muscle cells.
A short description of data set [4]: Plasma half life in iv dosed rat. In kind it is ADME, organism-based.
Data set [5] can be described thus: Oral bioavailability in rat. In kind it is ADME, organism-based. The conditions noted are these: in vivo.

T1 sequence (P32245 whole entry): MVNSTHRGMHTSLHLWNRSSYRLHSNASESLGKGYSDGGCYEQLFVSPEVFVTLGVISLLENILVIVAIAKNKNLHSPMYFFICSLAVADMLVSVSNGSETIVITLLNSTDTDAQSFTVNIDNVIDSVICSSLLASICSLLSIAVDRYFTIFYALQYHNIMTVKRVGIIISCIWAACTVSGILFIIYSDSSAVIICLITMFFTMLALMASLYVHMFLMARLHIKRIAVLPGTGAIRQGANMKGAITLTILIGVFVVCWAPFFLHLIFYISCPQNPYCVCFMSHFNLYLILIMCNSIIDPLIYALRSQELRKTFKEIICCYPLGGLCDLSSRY
Sequence of Voltage-gated inwardly rectifying potassium channel KCNH2 (Q12809 whole entry): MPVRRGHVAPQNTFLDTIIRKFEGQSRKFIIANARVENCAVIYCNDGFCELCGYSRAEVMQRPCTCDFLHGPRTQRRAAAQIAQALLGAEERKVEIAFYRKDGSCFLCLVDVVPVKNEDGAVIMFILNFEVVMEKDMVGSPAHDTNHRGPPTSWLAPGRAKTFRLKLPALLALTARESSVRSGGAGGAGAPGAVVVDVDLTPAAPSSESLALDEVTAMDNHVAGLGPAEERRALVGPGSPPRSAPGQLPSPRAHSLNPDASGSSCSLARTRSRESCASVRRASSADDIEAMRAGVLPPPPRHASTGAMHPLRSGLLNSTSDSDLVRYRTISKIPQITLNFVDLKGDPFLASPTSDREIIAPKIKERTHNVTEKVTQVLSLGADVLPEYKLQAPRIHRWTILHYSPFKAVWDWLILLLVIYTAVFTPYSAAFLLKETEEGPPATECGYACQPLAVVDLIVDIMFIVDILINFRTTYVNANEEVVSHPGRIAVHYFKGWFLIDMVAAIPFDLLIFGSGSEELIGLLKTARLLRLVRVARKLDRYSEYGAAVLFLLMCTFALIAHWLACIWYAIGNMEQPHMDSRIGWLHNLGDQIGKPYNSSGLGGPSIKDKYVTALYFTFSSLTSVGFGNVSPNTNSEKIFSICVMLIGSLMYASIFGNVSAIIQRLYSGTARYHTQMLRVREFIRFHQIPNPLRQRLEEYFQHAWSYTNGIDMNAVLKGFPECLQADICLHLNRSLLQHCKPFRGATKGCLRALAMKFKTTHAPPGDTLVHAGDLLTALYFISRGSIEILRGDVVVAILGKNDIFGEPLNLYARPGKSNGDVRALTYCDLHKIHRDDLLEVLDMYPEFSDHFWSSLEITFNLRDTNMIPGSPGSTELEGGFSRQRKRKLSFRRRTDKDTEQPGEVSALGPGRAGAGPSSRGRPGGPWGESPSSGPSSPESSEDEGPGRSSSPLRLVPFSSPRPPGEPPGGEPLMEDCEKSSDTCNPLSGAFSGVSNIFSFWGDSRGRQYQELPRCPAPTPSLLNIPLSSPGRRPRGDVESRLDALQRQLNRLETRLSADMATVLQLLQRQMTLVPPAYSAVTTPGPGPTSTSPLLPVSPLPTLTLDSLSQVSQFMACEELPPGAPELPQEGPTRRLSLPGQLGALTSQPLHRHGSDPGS

As usually defined, the IC50 is the point on the concentration scale where inhibition reaches its midpoint. Low values mean greater potency in that assay, high ones weaker potency in that assay. What is called Ki is a measure of affinity in units of concentration, obtained from inhibition or displacement. As to `COc1ccc(Br)cc1CCc1c(F)cccc1C(=O)/N=C(\N)NCCCCN(C)Cc1cccc2ccccc12`, the IC50 against Melanocortin receptor 4 [1] came out at 1.2 µM. At Melanocortin receptor 4 [2], this molecule registered a Ki of 0.057 µM.

With `COc1ccc(Br)cc1CCc1c(F)cccc1C(=O)/N=C(\N)NCCCCN1CCc2ccccc2C1`, on Melanocortin receptor 4 [1], half-maximal inhibition (IC50) required 0.65 µM. Moreover, affinity at Melanocortin receptor 4 [2] was put at a Ki of 0.026 µM.

Consider `CCN(CC)CCCC(C)N=C(N)NC(=O)c1cccc(F)c1OCc1cc(Br)ccc1OC` (stereo not given), for which the IC50 against Melanocortin receptor 4 [1] is 0.53 µM. The molecule further came in with a Ki on Melanocortin receptor 4 [2] of 0.9 µM.

`CCN(CC)CCCC(C)/N=C(/N)NC(=O)c1cccc(F)c1CCc1cc(Br)ccc1OC` (stereo not given) registered an IC50 on Melanocortin receptor 4 [1] of 0.13 µM. Moreover, the Ki on Melanocortin receptor 4 [2] came out at 0.0043 µM.

`CCCCN=C(N)NC(=O)c1cccc(F)c1CCc1cc(Br)ccc1OC` had a Ki on Melanocortin receptor 4 [2] of 0.92 µM.

On to `CCN(CC)CCCC(C)/N=C(/N)NC(=O)c1cccc(F)c1CCc1cccc2ccccc12` (stereo not given), for which, at Melanocortin receptor 4 [1], the IC50 was 1.5 µM. This molecule also showed a Ki at Melanocortin receptor 4 [2] of 0.089 µM.

With `CCN1CCC(C/N=C(/N)NC(=O)c2cccc(F)c2CCc2cc(Br)ccc2OC)CC1`, inhibition on Melanocortin receptor 4 [1] was half-maximal at 0.097 µM (IC50). At Melanocortin receptor 4 [2], affinity was put at a Ki of 0.0028 µM.

At Melanocortin receptor 4 [1], `CCN(CC)CCCC(C)N=C(N)NC(=O)c1cccc(F)c1CCc1ccccc1Cl` (stereo not given) gave an IC50 greater than 33 µM. This molecule also registered a Ki at Melanocortin receptor 4 [2] of 26 µM.

The molecule `CCN(CC)CCCC(C)/N=C(\NC(=O)c1cccc(F)c1CCc1cc(Br)ccc1OC)NC(C)C` (stereo not given) yielded an IC50 on Melanocortin receptor 4 [1] of 17 µM. For the same molecule, the affinity at Melanocortin receptor 4 [2], expressed as Ki, was 2.5 µM.

With `COc1ccc(Br)cc1CCc1c(Cl)cccc1C1=NCCN1`, in data set [3], the Ki came to 0.84 µM.

In turn, `COc1ccc(Br)cc1CCc1c(F)cccc1C(=O)/N=C(\N)NCCCCN1CCCCC1` came in with an IC50 against Melanocortin receptor 4 [1] of 0.07 µM. On Melanocortin receptor 4 [2], this molecule came in with a Ki of 0.00058 µM.

`COc1ccc(Br)cc1CCc1c(F)cccc1C(=O)/N=C(\N)NCCCNC1CCCCC1` returned an IC50 against Melanocortin receptor 4 [1] of 5.7 µM. The molecule also displayed a Ki at Melanocortin receptor 4 [2] of 0.08 µM.

Turning to `COc1ccc(Br)cc1CCc1c(F)cccc1C(=O)NC(N)=NCCCN1CCN(C)CC1`, at Melanocortin receptor 4 [1], the IC50 was found to be 0.67 µM. Further, at Melanocortin receptor 4 [2], affinity was put at a Ki of 0.064 µM.

At Melanocortin receptor 4 [1], `CCN(CC)CCCC(C)N=C(N)NC(=O)c1cccc(F)c1CCc1cc(Br)ccc1Cl` (stereo not given) came in with an IC50 of 0.66 µM. This molecule came in with a Ki at Melanocortin receptor 4 [2] of 0.11 µM.

By half-life is commonly meant the time in which the quantity being followed falls by half. The term bioavailability denotes the share of a dose that reaches the circulation, judged against a reference dose that is usually intravenous. In the case of `COc1ccc(Br)cc1CCc1c(F)cccc1C(=O)/N=C(\N)NCCCN1CCCCC1`, the half-life in data set [4] was 31 h. In addition, at Melanocortin receptor 4 [1], the IC50 was determined as 0.33 µM. Moreover, in data set [5], the bioavailability was determined as 6.3%. Also, the Ki at Melanocortin receptor 4 [2] is 0.0032 µM.

On Melanocortin receptor 4 [1], `COc1ccc(Br)cc1CCc1c(F)cccc1C(=O)/N=C(\N)NCCN1CCCC1` yielded an IC50 of 4.5 µM. Moreover, on Melanocortin receptor 4 [2], the Ki was 0.19 µM.

For the molecule `CCN(CC)CCCC(C)/N=C(\NC(=O)c1cccc(F)c1CCc1cc(Br)ccc1OC)Nc1ccccc1` (stereo not given), the affinity on Melanocortin receptor 4 [2], expressed as Ki, was 4.1 µM.

Turning to `COc1ccc(Br)cc1CCc1c(F)cccc1C(=O)/N=C(\N)NCC(C)C`, the IC50 on Melanocortin receptor 4 [1] was determined as 8.5 µM. The Ki on Melanocortin receptor 4 [2] was determined as 0.77 µM.

The molecule `COc1ccc(Br)cc1CCc1c(F)cccc1C(=O)NC(N)=NCCC1CCCCC1` showed a Ki on Melanocortin receptor 4 [2] of 2.6 µM.

In turn, `CCN(CC)CCCC(C)N=C(N)NC(=O)c1ccsc1CCc1cc(Br)ccc1OC` (stereo not given) came in with an IC50 against Melanocortin receptor 4 [1] of 0.26 µM. At Melanocortin receptor 4 [2], this molecule returned a Ki of 0.011 µM.

Regarding `CCN(CC)CCCC(C)N=C(N)NC(=O)c1cccc(F)c1CCc1ccc2ccccc2c1` (stereo not given), the IC50 against Melanocortin receptor 4 [1] is 1.8 µM. On Melanocortin receptor 4 [2], this molecule returned an inhibitory constant (Ki) of 0.69 µM.

As to `COc1ccc(Br)cc1CCc1c(F)cccc1C(=O)/N=C(\N)NCCCCN(C)Cc1ccccc1`, the IC50 against Melanocortin receptor 4 [1] was 0.18 µM. This molecule also had a Ki on Melanocortin receptor 4 [2] of 0.0051 µM.

For the molecule `CCN(CC)CCCC(C)/N=C(/NC)NC(=O)c1cccc(F)c1CCc1cc(Br)ccc1OC` (stereo not given), the Ki on Melanocortin receptor 4 [2] is 6.3 µM.

As for `CCN(CC)CCCC(C)N=C(N)NC(=O)c1cccc(F)c1CCc1cc(OC)cc(OC)c1` (stereo not given), half-maximal inhibition against Melanocortin receptor 4 [1] (IC50) was put at 0.17 µM. Also, affinity at Melanocortin receptor 4 [2] was put at a Ki of 0.014 µM.

Molecule `CCN(CC)CCCC(C)N=C(N)NC(=O)c1cccc(Cl)c1CCc1cc(Br)ccc1OC` (stereo not given) showed an IC50 on Melanocortin receptor 4 [1] of 0.26 µM. The affinity at Melanocortin receptor 4 [2], expressed as Ki, was 0.00083 µM.

For `COc1ccc(Br)cc1CCc1c(F)cccc1C(=O)/N=C(\N)NCCCCN1CCC2CCCCC2C1` (stereo not given), the IC50 against Melanocortin receptor 4 [1] stood at 0.39 µM. Besides, the Ki at Melanocortin receptor 4 [2] amounted to 0.021 µM.

With `COc1ccc(Br)cc1CCc1c(F)cccc1C1=NCCN1`, the half-life in data set [4] was 1 h. Moreover, the bioavailability in data set [5] stood at 4.6%.

`COc1ccc(Br)cc1CCc1c(Cl)cccc1C(=O)N=C(N)N` came in with an IC50 at Melanocortin receptor 4 [1] of 2.58 µM. On Melanocortin receptor 4 [2], this molecule displayed a Ki of 0.7 µM.

Turning to `COc1ccc(Br)cc1CCc1c(F)cccc1C(=O)NC(N)=NCC1CCNCC1`, the IC50 against Melanocortin receptor 4 [1] was determined as 0.031 µM. Further, affinity on Melanocortin receptor 4 [2] was put at a Ki of 0.013 µM.
